Legend:
RDL receptor Y254F3-Phe = details: Hill coefficient, GABA
RDL receptor F206-F3Phe = details: Hill coefficient, GABA
RDL receptor F206-FPhe = details: Hill coefficient, GABA
RDL receptor F206Y = RDL receptor F206Y (Drosophila melanogaster, UniProt P25123, F206Y); assay: GABA-induced currents in oocytes, RDL F206Y; assay type: cell-based
RDL receptor F206Y/Y254F = RDL receptor F206Y/Y254F (Drosophila melanogaster, UniProt P25123, F206Y/Y254F); assay: GABA-induced currents in oocytes, RDL F206Y/Y254F; assay type: cell-based; details: Hill coefficient
RDL receptor F206Y/Y254F, sequence (P25123 45-606 F206Y/Y254F): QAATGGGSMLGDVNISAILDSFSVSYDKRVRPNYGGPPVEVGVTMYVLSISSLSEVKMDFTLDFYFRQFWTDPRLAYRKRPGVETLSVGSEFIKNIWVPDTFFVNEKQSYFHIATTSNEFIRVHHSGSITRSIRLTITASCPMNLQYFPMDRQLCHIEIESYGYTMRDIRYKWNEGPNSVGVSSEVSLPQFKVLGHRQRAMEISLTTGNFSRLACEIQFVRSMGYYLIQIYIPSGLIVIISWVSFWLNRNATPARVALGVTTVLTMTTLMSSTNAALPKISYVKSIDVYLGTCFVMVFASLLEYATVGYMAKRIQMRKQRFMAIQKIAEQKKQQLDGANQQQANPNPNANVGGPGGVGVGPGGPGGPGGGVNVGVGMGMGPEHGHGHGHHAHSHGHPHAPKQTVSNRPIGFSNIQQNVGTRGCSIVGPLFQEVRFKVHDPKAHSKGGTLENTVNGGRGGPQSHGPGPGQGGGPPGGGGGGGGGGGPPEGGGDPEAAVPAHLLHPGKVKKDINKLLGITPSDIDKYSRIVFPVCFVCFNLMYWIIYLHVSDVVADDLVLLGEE

RDL receptor F206-F2Phe = details: Hill coefficient, GABA
RDL receptor F206A = RDL receptor F206A (Drosophila melanogaster, UniProt P25123, F206A); assay: GABA-induced currents in oocytes, RDL F206A; assay type: cell-based; details: Phe206 substituted with Ala, compared to WT
RDL receptor F206A, sequence (P25123 45-606 F206A): as the sequence (P25123 45-606 F206Y/Y254F) above, with Y162A, F210Y counted along it

GABAA receptor = details: GABA-activated GABAA receptor; ref Padgett et al., 2007; cited from earlier work
RDL receptor F146F3Phe = details: Hill coefficient, GABA
RDL receptor (WT) = target: T1, RDL receptor (WT) (Drosophila melanogaster, UniProt P25123); assay: GABA-induced currents, voltage clamp of Xenopus oocytes expressing wild type RDL; assay type: cell-based; details: Hill coefficient, mean ± SEM
T1 sequence (P25123 45-606): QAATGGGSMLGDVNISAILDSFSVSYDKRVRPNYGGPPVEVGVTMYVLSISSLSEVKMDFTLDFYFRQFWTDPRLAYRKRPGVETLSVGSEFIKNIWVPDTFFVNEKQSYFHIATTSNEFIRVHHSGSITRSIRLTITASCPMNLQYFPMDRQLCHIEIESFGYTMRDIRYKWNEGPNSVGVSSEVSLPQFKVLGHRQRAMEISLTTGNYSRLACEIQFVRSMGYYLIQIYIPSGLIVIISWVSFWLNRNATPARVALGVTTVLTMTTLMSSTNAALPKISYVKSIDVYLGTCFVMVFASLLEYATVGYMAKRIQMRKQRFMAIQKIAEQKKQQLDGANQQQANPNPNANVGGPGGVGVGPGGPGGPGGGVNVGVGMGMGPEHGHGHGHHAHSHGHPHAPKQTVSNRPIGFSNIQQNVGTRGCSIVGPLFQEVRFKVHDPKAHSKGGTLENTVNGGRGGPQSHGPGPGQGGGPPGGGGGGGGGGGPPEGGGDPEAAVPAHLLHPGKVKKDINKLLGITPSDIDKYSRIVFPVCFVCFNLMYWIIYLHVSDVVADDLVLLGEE

RDL receptor Y254F = RDL receptor Y254F (Drosophila melanogaster, UniProt P25123, Y254F); assay: GABA-induced currents in oocytes, RDL Y254F; assay type: cell-based
RDL receptor Y254F, sequence (P25123 45-606 Y254F): as the sequence (P25123 45-606 F206Y/Y254F) above, with Y162F counted along it

GABAC receptor = details: GABA-activated GABAC receptor; ref Lummis et al., 2005; cited from earlier work
RDL receptor Y254-FPhe = details: Hill coefficient, GABA
RDL receptor Y254F2-Phe = details: Hill coefficient, GABA
RDL receptor Y254A = RDL receptor Y254A (Drosophila melanogaster, UniProt P25123, Y254A); assay: GABA-induced currents in oocytes, RDL Y254A; assay type: cell-based; details: Tyr254Ala receptors, GABA up to 100 mM
RDL receptor Y254A, sequence (P25123 45-606 Y254A): as the sequence (P25123 45-606 F206Y/Y254F) above, with Y162F, F210A counted along it

[1] = tested on: RDL mutant (TAG) mRNA without aminoacylated tRNA; assay type: cell-based, Drosophila; details: 5 mM GABA; mutant mRNA alone or with tRNA-dCA with no amino acid attached
RDL receptor F146A = RDL receptor F146A (Drosophila melanogaster, UniProt P25123, F146A); assay: GABA-induced currents in oocytes, RDL F146A; assay type: cell-based
RDL receptor F146A, sequence (P25123 45-606 F146A): as the sequence (P25123 45-606 F206Y/Y254F) above, with F102A, Y162F, F210Y counted along it

RDL receptor = details: homomers in Xenopus oocytes; ref Zhang et al., 1994; cited from earlier work

RDL receptor F206Y, sequence (P25123 45-606 F206Y): as the sequence (P25123 45-606 F206Y/Y254F) above, with F210Y counted along it

NCCCC(=O)O [GABA]
nH (RDL receptor Y254F3-Phe): 1.2 ± 0.3
nH (RDL receptor F206-F3Phe): 2.0 ± 0.4
nH (RDL receptor F206-FPhe): 1.8 ± 0.3
nH (RDL receptor F206Y; Hill coefficient, F206Y): 2.2 ± 0.3
decrease in EC50 compared to WT (RDL receptor F206Y; Phe206Tyr): ~200 fold
nH (RDL receptor F206Y/Y254F): 1.9 ± 0.5
nH (RDL receptor F206-F2Phe): 1.8 ± 0.3
increase in EC50 (RDL receptor F206A): ~50 fold
slope of fluorination plot (GABAA receptor): 0.29
nH (RDL receptor F146F3Phe): 1.4 ± 0.4
nH (RDL receptor (WT)): 1.4 ± 0.2
nH (RDL receptor Y254F; Hill coefficient, Y254F): 2.1 ± 0.4
increase in EC50 (RDL receptor Y254F; Tyr254 substituted with Phe, compared to WT): ~4 fold
slope of fluorination plot (GABAC receptor): 0.21
nH (RDL receptor Y254-FPhe): 1.3 ± 0.4
nH (RDL receptor Y254F2-Phe): 1.1 ± 0.2
response to GABA (RDL receptor Y254A): did not respond
currents in response to GABA [1]: No currents
nH (RDL receptor F146A; Hill coefficient, GABA, F146A): 2.1 ± 0.2
increase in GABA EC50 (RDL receptor F146A; Phe146 substituted with Ala, compared to WT): < 4 fold

picrotoxin
inhibition of RDL receptors (RDL receptor): inhibited

From PMC3233689 (The Journal of neuroscience : the official journal of the …, 2011)
